Results from patent US20240158446A1, “CYCLIC COMPOUND HAVING SELECTIVE INHIBITORY ACTION ON KRAS OVER HRAS AND NRAS” (CHUGAI SEIYAKU KABUSHIKI KAISHA, priority 2021, published 2024).
Like-named read-outs stand apart in the source and are kept apart here. *1 amine or outer side, *2 acyl side, *3 side chain or, on linkers, in order; H or OH if unused. Where a SMILES comes first, the peptide text is derived from it. Bridges are numbered along the chain shown (N, C = ends). [ ]: non-standard residue; d: D form. The star is where a group is joined. hPhe(3-Cl-4-CF3) = N[C@@H](CCc1ccc(C(F)(F)F)c(Cl)c1)C(=O)O; X17 = CCCCN([C@@H](Cc1ccc(C(F)(F)F)cc1)C(=O)[*:2])[*:1]; NPrPhe(4-CF3) = CCCN[C@@H](Cc1ccc(C(F)(F)F)cc1)C(=O)O; NMeGly(cPent) = CN[C@H](C(=O)O)C1CCCC1; Pro(4,4-F2) = O=C(O)[C@@H]1CC(F)(F)CN1; NMeD = CN[C@@H](CC(=O)O)C(=O)O; NMeL = CN[C@@H](CC(C)C)C(=O)O; Morpholide = C1CN(*)CCO1; NMeA = CN[C@@H](C)C(=O)O; Ac5c = NC1(C(=O)O)CCCC1; Aze = O=C(O)[C@@H]1CCN1; Ac4c = NC1(C(=O)O)CCC1; NEtG = CCNCC(=O)O; Sar = CNCC(=O)O

Key:
[1] = biological target: GDP-bound HRAS wild-type protein (Homo sapiens, UniProt P01112); assay: Binding to HRAS by surface plasmon resonance (SPR), Single Cycle Kinetics; conditions: for HRAS/KRAS (ratio of KD value for HRAS to KD value for KRAS) / HRAS/KRAS (ratio of KD value with respect to HRAS to KD value with respect to KRAS): SPR, GDP-bound HRAS wild-type protein vs GDP-bound KRAS wild-type protein; for HRAS/KRAS (ratio of KD value with respect to GDP-bound HRAS wild-type protein to KD value with respect to KRAS): SPR KD ratio HRAS/KRAS, class symbols
[2] = biological target: GDP-bound NRAS wild-type protein (Homo sapiens, UniProt P01111); assay: Binding to NRAS by surface plasmon resonance (SPR), Single Cycle Kinetics; conditions: for NRAS/KRAS (ratio of KD value for NRAS to KD value for KRAS) / NRAS/KRAS (ratio of KD value with respect to NRAS to KD value with respect to KRAS): SPR, GDP-bound NRAS wild-type protein vs GDP-bound KRAS wild-type protein; for NRAS/KRAS (ratio of KD value with respect to GDP-bound NRAS wild-type protein to KD value with respect to KRAS): SPR KD ratio NRAS/KRAS, class symbols
[3] = biological target: GDP-bound KRAS wild-type protein (Homo sapiens, UniProt P01116); assay: Binding to KRAS by surface plasmon resonance (SPR), Single Cycle Kinetics; conditions: GDP-bound KRAS wild-type protein, read-out: KRAS KD
[4] = SPR Single Cycle Kinetics, 1:1 binding model

Chain of GDP-bound HRAS wild-type protein (P01112 whole entry): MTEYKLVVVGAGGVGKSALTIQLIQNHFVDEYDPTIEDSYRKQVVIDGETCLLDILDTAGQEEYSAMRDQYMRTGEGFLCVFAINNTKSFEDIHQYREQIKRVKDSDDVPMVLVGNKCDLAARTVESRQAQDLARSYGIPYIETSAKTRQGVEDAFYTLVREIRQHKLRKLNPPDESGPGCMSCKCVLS
Chain of GDP-bound NRAS wild-type protein (P01111 whole entry): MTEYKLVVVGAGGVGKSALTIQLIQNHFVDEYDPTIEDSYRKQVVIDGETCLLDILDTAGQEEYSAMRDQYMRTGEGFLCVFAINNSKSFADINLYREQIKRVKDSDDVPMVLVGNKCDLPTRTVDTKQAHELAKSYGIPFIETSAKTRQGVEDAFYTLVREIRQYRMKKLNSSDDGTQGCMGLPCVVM
Chain of GDP-bound KRAS wild-type protein (P01116 whole entry): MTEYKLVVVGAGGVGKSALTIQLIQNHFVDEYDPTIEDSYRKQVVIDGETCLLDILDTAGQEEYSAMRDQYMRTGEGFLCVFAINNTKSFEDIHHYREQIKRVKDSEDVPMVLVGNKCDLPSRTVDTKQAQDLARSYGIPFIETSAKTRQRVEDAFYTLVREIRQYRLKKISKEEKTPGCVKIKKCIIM

Structure (SMILES)	HRAS/KRAS (ratio of KD value for HRAS to KD value for KRAS) [1]	NRAS/KRAS (ratio of KD value for NRAS to KD value for KRAS) [2]	Kd ([3]; SPR, Single Cycle Kinetics)	HRAS/KRAS (ratio of KD value with respect to HRAS to KD value with respect to KRAS) [1]	NRAS/KRAS (ratio of KD value with respect to NRAS to KD value with respect to KRAS) [2]	Kd [3, 4]	further results
CCC[C@H]1C(=O)N[C@@H]([C@@H](C)CC)C(=O)N(C2CC2)CC(=O)N(C)[C@H]2C/C=C\CCN(C2=O)[C@@H](CC2CCC(F)(F)CC2)C(=O)N(C)CC(=O)N[C@@H](CCc2ccc(C(F)(F)F)c(OC)c2)C(=O)N2C[C@H](OCC)C[C@H]2C(=O)N(C)C2(CCC2)C(=O)N(C)[C@@H](C2CCCC2)C(=O)N(C)[C@H](C(=O)N(C)C)CC(=O)N1C [PP2352]	A (a compound having 10 or more and less than 20 is denoted as A)	A (a compound having 10 or more and less than 20 is denoted as A)	0.76 nM				
CCO[C@@H]1C[C@H]2C(=O)NC3(CCCC3)C(=O)N(C)[C@@H](C3CCCC3)C(=O)N(C)[C@H](C(=O)N(C)C)CC(=O)N(C)[C@@H](CC(C)C)C(=O)N[C@@H]([C@@H](C)CC)C(=O)N(C)CC(=O)N(C)[C@H]3CCCCN(C3=O)[C@@H](Cc3ccc(C(F)(F)F)cc3)C(=O)N(C)CC(=O)N[C@@H](CCc3cc(F)c(C(F)(F)F)c(F)c3)C(=O)N2C1 [PP0579]				B (a compound having 3 or more and less than 10 is denoted as B)	C (A compound having a KD ratio of 0.1 or more and less than 3 is denoted as C)	0.017 nM	
CC[C@H](C)[C@@H]1NC(=O)[C@H](CC(C)C)N(C)C(=O)C[C@@H](C(=O)N2CCOCC2)N(C)C(=O)[C@H](C2CCCC2)N(C)C(=O)C2(CCC2)NC(=O)[C@@H]2CC(F)(F)CN2C(=O)[C@H](CCc2cc(F)c(C(F)(F)F)c(F)c2)NC(=O)CN(C)C(=O)[C@H](Cc2ccc(C(F)(F)F)cc2)N2CCCC[C@@H](C2=O)N(C)C(=O)CN(C)C1=O [PP0575]				B (a compound having 3 or more and less than 10 is denoted as B)	B (a compound having 3 or more and less than 10 is denoted as B)	0.023 nM	
CCO[C@@H]1C[C@H]2C(=O)NC3(CCC3)C(=O)N(C)[C@@H](C3CCCC3)C(=O)N(C)[C@H](C(=O)N(C)C)CC(=O)N(C)[C@@H](CC)C(=O)N[C@@H]([C@@H](C)CC)C(=O)N(C)CC(=O)N(C)[C@H]3CCCCN(C3=O)[C@@H](Cc3ccc(C(F)(F)F)cc3)C(=O)N(C)CC(=O)N[C@@H](CCc3ccc(C(F)(F)F)cc3F)C(=O)N2C1 [PP0885]	B (a compound having 3 or more and less than 10 is denoted as B)	C (A compound having a KD ratio of 0.1 or more and less than 3 is denoted as C)	0.098 nM				
CCC[C@H]1C(=O)N[C@@H]([C@@H](C)CC)C(=O)N(C2CC2)CC(=O)N(C)[C@H]2C/C=C\CCN(C2=O)[C@@H](Cc2ccc(C)cc2)C(=O)N(C)CC(=O)N[C@@H](CCc2ccc(C(F)(F)F)c(OC)c2)C(=O)N2C[C@H](OCC)C[C@H]2C(=O)N(C)C2(CCC2)C(=O)N(C)[C@@H](C2CCCC2)C(=O)N(C)[C@H](C(=O)N(C)C)CC(=O)N1C [PP2328, (2S,8S,12R,14S,20S,23S,27S,30S,36S,38Z)-20-cyclopentyl-32-cyclopropyl-12-ethoxy-8-[2-[3-methoxy-4-(trifluoromethyl)phenyl]ethyl]-N,N,4,16,19,22,26,35-octamethyl-30-[(1S)-1-methylpropyl]-3,6,9,15,18,21,25,28,31,34,42-undecaoxo-27-propyl-2-(p-tolylmethyl)spiro[1,4,7,10,16,19,22,26,29,32,35-undecazatricyclo[34.5.1.0^10,14]dotetracont-38-ene-17,1′-cyclobutane]-23-carboxamide]	A (a compound having 10 or more and less than 20 is denoted as A)	A (a compound having 10 or more and less than 20 is denoted as A)	0.079 nM				
CCCCN1C(=O)[C@@H]2CCN2C(=O)[C@H](C)N(C)C(=O)[C@H]([C@@H](C)CC)NC(=O)[C@H](CC(C)C)N(C)C(=O)C[C@@H](C(=O)N2CCOCC2)N(C)C(=O)[C@H](C2CCCC2)N(C)C(=O)C2(CCCC2)NC(=O)[C@@H]2CCCN2C(=O)[C@H](CCc2ccc(C(F)(F)F)c(Cl)c2)NC(=O)CN(C)C(=O)[C@@H]1Cc1ccc(C(F)(F)F)cc1 [PP0106] ([NMeL]I[NMeA][Aze][X17][Sar][hPhe(3-Cl-4-CF3)]P[Ac5c][NMeGly(cPent)][NMeD]-Morpholide; lactam N-11)	B (a compound having 3 or more and less than 10 is denoted as B)	C (A compound having a KD ratio of 0.1 or more and less than 3 is denoted as C)				0.19 nM	
CCC[C@H]1C(=O)N[C@@H]([C@@H](C)CC)C(=O)N(C)CC(=O)N(C)[C@H]2C/C=C\CCN(C2=O)[C@@H](CC2CCC(F)(F)CC2)C(=O)N(C)CC(=O)N[C@@H](CCc2ccc(C(F)(F)F)c(OC)c2)C(=O)N2C[C@H](OCC)C[C@H]2C(=O)N(C)C2(CCC2)C(=O)N(C)[C@@H](C(CC)CC)C(=O)N(C)[C@H](C(=O)N(C)C)CC(=O)N1C [PP2345]	A (a compound having 10 or more and less than 20 is denoted as A)	A (a compound having 10 or more and less than 20 is denoted as A)	1.7 nM				
CCO[C@@H]1C[C@H]2C(=O)NC3(CCC3)C(=O)N(C)[C@@H](C3CCCC3)C(=O)N(C)[C@H](C(=O)N(C)C)CC(=O)N(C)[C@@H](CC3CCC3)C(=O)N[C@@H]([C@@H](C)CC)C(=O)N(C)CC(=O)N(C)[C@H]3CCCCN(C3=O)[C@@H](Cc3ccc(C(F)(F)F)cc3)C(=O)N(C)CC(=O)N[C@@H](CCc3cc(F)c(C(F)(F)F)c(F)c3)C(=O)N2C1 [PP0698]				C (A compound having a KD ratio of 0.1 or more and less than 3 is denoted as C)	C (A compound having a KD ratio of 0.1 or more and less than 3 is denoted as C)	0.015 nM	
CCO[C@@H]1C[C@H]2C(=O)NC3(CC(C)(C)C3)C(=O)N(C)[C@@H](C3CCCC3)C(=O)N(C)[C@H](C(=O)N(C)CC)CC(=O)N(C)[C@H]3CCC/C=C/c4ccc(cc4)C[C@@H](C(=O)N(C)CC(=O)N[C@@H](CCc4ccc(Cl)c(Cl)c4)C(=O)N2C1)N1CC/C=C\C[C@@H](C1=O)N(C)C(=O)CN(C)C(=O)[C@H]([C@@H](C)CC)NC3=O [PP2577]						0.12 nM	HRAS/KRAS (ratio of KD value with respect to GDP-bound HRAS wild-type protein to KD value with respect to KRAS) [1]: A (a compound having 10 or more and less than 20 is denoted as A); NRAS/KRAS (ratio of KD value with respect to GDP-bound NRAS wild-type protein to KD value with respect to KRAS) [2]: A (a compound having 10 or more and less than 20 is denoted as A)
CCO[C@@H]1C[C@H]2C(=O)NC3(CCCC3)C(=O)N(C)[C@@H](C3CCCC3)C(=O)N(C)[C@H](C(=O)N(C)C)CC(=O)N(C)[C@@H](CC(C)C)C(=O)N[C@@H]([C@@H](C)CC)C(=O)N(C)CC(=O)N(C)[C@H]3C/C=C\CCN(C3=O)[C@@H](Cc3ccc(C(F)(F)F)cc3)C(=O)N(C)CC(=O)N[C@@H](CCc3ccc(Cl)c(Cl)c3)C(=O)N2C1 [PP2837]						0.21 nM	HRAS/KRAS (ratio of KD value with respect to GDP-bound HRAS wild-type protein to KD value with respect to KRAS) [1]: A (a compound having 10 or more and less than 20 is denoted as A); NRAS/KRAS (ratio of KD value with respect to GDP-bound NRAS wild-type protein to KD value with respect to KRAS) [2]: AA (a compound having 20 or more is denoted as AA)
CCCN1C(=O)CN(C)C(=O)CN(CC)C(=O)[C@H]([C@@H](C)CC)NC(=O)[C@H](CC(C)C)N(C)C(=O)C[C@@H](C(=O)N(C)C)N(C)C(=O)[C@H](C2CCCC2)N(C)C(=O)C2(CCC2)NC(=O)[C@@H]2CC(F)(F)CN2C(=O)[C@H](CCc2ccc(C(F)(F)F)c(Cl)c2)NC(=O)CN(C)C(=O)[C@@H]1Cc1ccc(C(F)(F)F)cc1 [PP0426] ([NMeL]I[NEtG][Sar][NPrPhe(4-CF3)][Sar][hPhe(3-Cl-4-CF3)][Pro(4,4-F2)][Ac4c][NMeGly(cPent)][NMeD]-NMe2; lactam N-11)				C (A compound having a KD ratio of 0.1 or more and less than 3 is denoted as C)	C (A compound having a KD ratio of 0.1 or more and less than 3 is denoted as C)	0.12 nM	
CC[C@H](C)[C@@H]1NC(=O)[C@H](CC(C)C)N(C)C(=O)C[C@@H](C(=O)N(C)C)N(C)C(=O)[C@H](C2CCCC2)N(C)C(=O)C2(CCC2)NC(=O)[C@@H]2[C@@H](OCC(F)F)CCN2C(=O)[C@H](CCc2cc(F)c(C(F)(F)F)c(F)c2)NC(=O)CN(C)C(=O)[C@H](Cc2ccc(C(F)(F)F)cc2)N2CC/C=C\C[C@@H](C2=O)N(C)C(=O)CN(C)C1=O [PP1534, (2S,8S,13S,14S,20S,23S,27S,30S,36S,38Z)-20-cyclopentyl-13-(2,2-difluoroethoxy)-8-[2-[3,5-difluoro-4-(trifluoromethyl)phenyl]ethyl]-27-isobutyl-N,N,4,19,22,26,32,35-octamethyl-30-[(1S)-1-methylpropyl]-3,6,9,15,18,21,25,28,31,34,42-undecaoxo-2-[[4-(trifluoromethyl)phenyl]methyl]spiro[1,4,7,10,16,19,22,26,29,32,35-undecazatricyclo[34.5.1.0^10,14]dotetracont-38-ene-17,1′-cyclobutane]-23-carboxamide]							HRAS/KRAS (ratio of KD value for HRAS to KD value for KRAS) ([1]; KD ratio class): A (a compound having 10 or more and less than 20 is denoted as A); NRAS/KRAS (ratio of KD value for NRAS to KD value for KRAS) ([2]; KD ratio class): AA (a compound having 20 or more is denoted as AA); Kd ([3]; SPR, Single Cycle Kinetics, 1:1 binding model): 0.13 nM
